# Patent US10080366B2, “Agent for increasing sugar content in fruit” (RIKEN, priority 2012, dated 2018)
# Several values for one entry are separate records, joined by “and”; a condition that tells them apart may be missing. Equal values may be shown once. Read-outs that look alike come from different tables or passages of the source.
# Columns and labels:
# [1] = test system: fruit of grape (variety: Red Globe)
# Protocol: An agent for increasing a sugar content in a fruit (containing Sorbon T-20 as a spreader/sticker at a final concentration of 200 μL/L) diluted with water to have a potassium hydrogen carbonate concentration of 10 g/L was prepared. The mass of fruit of grape (variety: Red Globe) purchased on the market was measured. Then, the prepared agent for increasing a sugar content in a fruit was applied by spraying to the fruit of grape. Then, the fruit of grape was allowed to stand in an air-conditioned greenhouse (temperature: 25° C.), and the mass was measured over time (date of application: Apr. 27, 2011; dates of test: May 2, 2011, May 6, 2011, May 9, 2011, May 11, 2011, May 13, 2011, and May 16, 2011). In addition, as a control, the mass of untreated grape was measured on each date of measurement in the same manner.
# On the basis of the measured mass, the estimated amount (cumulative value) of transpiration and the estimated amount of transpiration per day were calculated. The results are shown in Tables 5 and 6 and FIGS. 10 and 11.
# Note that the vertical axis in FIG. 10 represents the mass (g) of the fruit of grape on each of the dates of measurement per 100 g of the fruit of grape on the date of application, and the vertical axis in FIG. 11 represents the estimated amount (g) of transpiration on each of the dates of measurement per 100 g of the fruit of grape on the date of application. The estimated amount (g) of transpiration on each of the dates of measurement per 100 g of the fruit of grape on the date of application=(the mass (g) of the fruit of grape on the date of application−the mass (g) of the fruit of grape on the date of measurement)/the mass of the fruit of grape on the date of application×100
# fruits of apple = test system: fruits of apple
# Protocol: (§1) An agent for increasing a sugar content in a fruit (containing Sorbon T-20 as a spreader/sticker at a final concentration of 200 μL/L) diluted with water to have a potassium hydrogen carbonate concentration of 10 g/L was prepared. The masses of fruits of apple and cherry tomato purchased on the market were measured. Then, the prepared agent for increasing a sugar content in a fruit was applied by spraying to the fruits. The fruits were allowed to stand still in an air-conditioned greenhouse, and the masses of the apples and cherry tomatoes were measured on the date of application (date of application: Nov. 30, 2011; date of test: Dec. 5, 2011). In addition, as a control, the masses of untreated apples and cherry tomatoes were measured in the same manner.
# (§2) The estimated transpiration ratio (%) was calculated by “the estimated amount (g) of transpiration/the mass (g) before application×100.”
# (§3) The transpiration ratio was calculated by “the estimated transpiration ratio of the target sample (treated by application of potassium hydrogen carbonate or untreated)/the estimated transpiration ratio of the untreated sample.”
# fruits of cherry tomato = test system: fruits of cherry tomato
# Protocol: as §1, §2, §3
# [2] = test system: clusters of grape (variety: Crimson); test: Estimated transpiration ratio of grape clusters (Example 9); assay type: in vivo; conditions: 10 g/L; 8 days after treatment
# Cherry (Sato Nishiki) = conditions: 10 g/L, three times at intervals of one week; harvested four weeks later
# Protocol: (§4) To each of the plants shown in Table 15 below, an aqueous potassium hydrogen carbonate solution (10 g/L) was applied three times at intervals of one week about one month before the harvest time. Each of the plants was harvested four weeks later. The degree of the fruit cracking of the fruit was compared with that of untreated fruit, and a fruit cracking-suppression ratio was determined. […] The fruit cracking ratio (%)=the number of pieces of the fruit which underwent fruit cracking/the total number of pieces of the fruit×100 The fruit cracking-suppression ratio (%)=(1−the fruit cracking ratio (%) of a treated group/the fruit cracking ratio (%) of an untreated group)×100
# [3] = test system: Grape (Nagano Purple), Grape (Riesling); conditions: 10 g/L, three times at intervals of one week
# Protocol: as §4
# Tomato (Regina) = conditions: 10 g/L, three times at intervals of one week
# Protocol: as §4
# [4] = test system: fruit of trellised grape (variety: Pinot noir)
# Protocol: To fruit of trellised grape (variety: Pinot noir), an aqueous potassium hydrogen carbonate solution (20 g/L) was applied three times at intervals of one week. The fruit was harvested 21 days after the first application, and the sugar content, acidity, and amino acid concentration were measured. In addition, the harvested fruit was kept in an air-conditioned greenhouse (25° C.) for 10 days, and the drying state of the fruit was observed.
# Tomato = conditions: dilution ratio 100 (10 g/L); 6 days after treatment
# [5] = approximately 3 weeks later (19 days later)
structure (smiles),measurement,setting,value
"O=C([O-])O.[K+] [Potassium hydrogen carbonate, potassium hydrogen carbonate]",Estimated amount (g) of transpiration per 100 g of fruit on date of application,[1]; 5 days later,17.4 g
same,Mass (g) of fruit per 100 g of fruit on date of application,[1]; 5 days later (applied Apr. 27),82.6 g
same,Estimated amount (g) of transpiration per 100 g of fruit on date of application,[1]; 9 days later,29.5 g
same,Mass (g) of fruit per 100 g of fruit on date of application,[1]; 9 days later,70.5 g
same,Estimated amount (g) of transpiration per 100 g of fruit on date of application,[1]; 12 days later,37.2 g
same,Mass (g) of fruit per 100 g of fruit on date of application,[1]; 12 days later,62.8 g
same,Estimated amount (g) of transpiration per 100 g of fruit on date of application,[1]; 14 days later,42.6 g
same,Mass (g) of fruit per 100 g of fruit on date of application,[1]; 14 days later,57.4 g
same,Estimated amount (g) of transpiration per 100 g of fruit on date of application,[1]; 16 days later,47.9 g
same,Mass (g) of fruit per 100 g of fruit on date of application,[1]; 16 days later,52.1 g
same,Estimated amount (g) of transpiration per 100 g of fruit on date of application,[1]; 19 days later,55.3 g
same,Mass (g) of fruit per 100 g of fruit on date of application,[1]; 19 days later,44.7 g
same,mass as % of the mass on the date of application,[1]; [5],44.7%
same,ratio of transpiration of the fruit,[1]; [5],55.3%
same,Transpiration ratio (treated/untreated),fruits of apple; 10 g/L,1.65
same,Mass (g) on date of test,"fruits of apple; 10 g/L, Dec. 5",263.69 g and 274.65 g
same,Estimated amount (g) of transpiration,"fruits of apple; 10 g/L, Nov. 30 to Dec. 5",9.15 g and 11.66 g
same,Estimated transpiration ratio (%),"fruits of apple; 10 g/L, Nov. 30 to Dec. 5",3.35% and 3.72%
same,Estimated transpiration ratio (average) (%),"fruits of apple; 10 g/L, average of two apples",3.54%
same,Mass (g) before application,fruits of apple; Nov. 30,272.84 g and 286.31 g
same,Transpiration ratio (treated/untreated),fruits of cherry tomato; 10 g/L,1.93
same,Mass (g) on date of test,"fruits of cherry tomato; 10 g/L, Dec. 5",193.30 g
same,Estimated amount (g) of transpiration,"fruits of cherry tomato; 10 g/L, Nov. 30 to Dec. 5",21.75 g
same,Estimated transpiration ratio (%),"fruits of cherry tomato; 10 g/L, Nov. 30 to Dec. 5",10.12%
same,Mass (g) before application,fruits of cherry tomato; Nov. 30,215.05 g
same,Estimated transpiration ratio (%) Average,[2],31%
same,Estimated transpiration ratio (%) First,[2],33%
same,Estimated transpiration ratio (%) Second,[2],28%
same,Fruit cracking-suppression ratio,Cherry (Sato Nishiki),98%
same,Fruit cracking-suppression ratio,[3]; Nagano Purple,97%
same,Fruit cracking-suppression ratio,[3]; Riesling,98%
same,Fruit cracking-suppression ratio,Tomato (Regina),95%
same,Acidity,"[4]; 20 g/L x3, at harvest",0.8
same,Amino acid concentration,"[4]; 20 g/L x3, at harvest",2800 µg/L
same,State 10 days after harvest (drying state),"[4]; 20 g/L x3, kept in greenhouse (25° C.) for 10 days",dried faster than the untreated grape
same,Sugar content (%),"[4]; 20 g/L, three times at intervals of one week, at harvest, 21 days after first application",46%
same,Ratio (%) of decrease in body weight of fruit,Tomato,14.8%
